One data set deals with T1, CalDAG-GEFI (Mus musculus, UniProt Q9QUG9).
T1 construct: expressed in transfected cells; host or cells: 293T cells
T1 sequence (Q9QUG9 with tags, fused parts or gaps M73V/I83V/Q99P/R233K/C339S/E542D/S598T limits assumed): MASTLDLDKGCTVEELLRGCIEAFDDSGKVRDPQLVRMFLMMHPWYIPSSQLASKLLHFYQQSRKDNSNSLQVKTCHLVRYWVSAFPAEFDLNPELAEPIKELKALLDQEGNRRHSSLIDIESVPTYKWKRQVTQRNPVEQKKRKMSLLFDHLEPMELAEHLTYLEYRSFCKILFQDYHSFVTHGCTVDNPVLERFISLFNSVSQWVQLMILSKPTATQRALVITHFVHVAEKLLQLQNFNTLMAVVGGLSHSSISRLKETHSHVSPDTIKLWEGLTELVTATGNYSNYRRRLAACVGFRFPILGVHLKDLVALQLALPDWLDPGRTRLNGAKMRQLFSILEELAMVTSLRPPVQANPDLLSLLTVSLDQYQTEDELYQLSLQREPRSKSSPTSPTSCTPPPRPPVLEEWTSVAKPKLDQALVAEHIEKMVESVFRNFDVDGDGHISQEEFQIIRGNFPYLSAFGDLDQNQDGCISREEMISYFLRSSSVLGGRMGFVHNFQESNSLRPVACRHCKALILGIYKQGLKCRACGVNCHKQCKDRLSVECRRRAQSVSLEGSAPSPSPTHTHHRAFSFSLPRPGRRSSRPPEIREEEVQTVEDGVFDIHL
As to the kind of experiment: Guanine nucleotide exchange activity in intact 293T cells cotransfected with mouse CalDAG-GEFI and GST-tagged Rap1A. To be noted: 10 μM A23187 or 1 μM TPA for 3 min. It is filed as cell-based. As for the experimental part:
(§1) To determine the small G protein target of CalDAG-GEFI, guanine nucleotide exchange activity in vivo was analyzed using intact 293T cells cotransfected with a eukaryotic expression construct of mouse CalDAG-GEFI and GST-tagged Ras family proteins. Full-length mouse CalDAG-GEFI cDNA inserted into a pCMV-SPORT expression vector with a carboxy-terminal FLAG epitope was used for transfection. A PCR-amplified fragment of rat CalDAG-GEFII was subcloned into a pCAGGS expression vector with the addition of His6-tag at its amino-terminus, resulting in pCAGGS-His-CalDAGII. pEBG-Krev1 that expresses Rap1A was used as a fusion protein to glutathione S-transferase (GST) in mammalian cells, as described in Gotoh et al., 15 Mol. Cell Biol. 6746–53 (1995), pEBG-R-Ras, other vectors for Ras-family proteins obtained by inserting PCR-amplified cDNAs into pEBG expression vector, pCAGGS-C3G and pCAGGS-MSos1, and pCEV-H-RasVl2.
To determine the effect of CalDAG-GEFI on the Erk/MAP kinase cascade, Elk1 activation was measured in 293T cells transfected with CalDAG-GEFI or constitutively active H-Ras (RasV12), or both. […] 293T cells were transfected with pFR-Luc and pFA-Elk1 with various expression vectors, and light output was detected and analyzed by the use of LAS1000 film.

The next data set deals with T2, CalDAG-GEFII (Rattus norvegicus, UniProt Q9R1K8).
T2 construct: expressed in transfected cells; host or cells: 293T cells
T2 sequence (Q9R1K8 1-795): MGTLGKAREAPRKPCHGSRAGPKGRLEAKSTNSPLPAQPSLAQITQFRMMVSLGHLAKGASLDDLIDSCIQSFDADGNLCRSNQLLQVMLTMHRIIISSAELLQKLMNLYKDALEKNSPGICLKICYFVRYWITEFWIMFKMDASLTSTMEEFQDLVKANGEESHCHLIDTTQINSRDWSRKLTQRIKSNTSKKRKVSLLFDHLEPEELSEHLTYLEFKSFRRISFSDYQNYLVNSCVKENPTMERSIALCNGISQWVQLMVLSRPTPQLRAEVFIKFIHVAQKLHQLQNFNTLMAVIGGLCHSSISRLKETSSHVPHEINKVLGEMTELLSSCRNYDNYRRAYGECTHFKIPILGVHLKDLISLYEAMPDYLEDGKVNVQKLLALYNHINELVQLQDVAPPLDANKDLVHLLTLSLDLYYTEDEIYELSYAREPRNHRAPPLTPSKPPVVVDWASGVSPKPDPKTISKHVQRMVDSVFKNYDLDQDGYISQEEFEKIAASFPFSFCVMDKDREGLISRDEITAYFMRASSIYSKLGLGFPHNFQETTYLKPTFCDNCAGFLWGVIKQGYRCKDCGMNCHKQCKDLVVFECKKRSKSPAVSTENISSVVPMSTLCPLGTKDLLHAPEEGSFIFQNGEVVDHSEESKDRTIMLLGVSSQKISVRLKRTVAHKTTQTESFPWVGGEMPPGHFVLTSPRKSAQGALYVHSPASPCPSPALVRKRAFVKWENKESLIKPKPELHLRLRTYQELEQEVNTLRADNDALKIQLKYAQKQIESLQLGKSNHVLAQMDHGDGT
As to the kind of experiment: Guanine nucleotide exchange activity in 293T cells transfected with CalDAG-GEFII (H-Ras activation). It is filed as cell-based. As for the experimental part: as §1
To determine the effect of CalDAG-GEFI on the Erk/MAP kinase cascade, Elk1 activation was measured in 293T cells transfected with CalDAG-GEFI or constitutively active H-Ras (RasV12), or both. […] 293T cells were transfected with pFR-Luc and pFA-Elk1 with various expression vectors, and light output was detected and analyzed by the use of LAS1000 film. […]

Another data set deals with Rap1A. As to the kind of experiment: GTP-bound Rap1A in 293T cells in the absence of cAMP-GEFs. It is filed as cell-based. To be noted: treatment alone. An excerpt: (§2) Forskolin/IBMX treatment given alone had no effect.
cAMP-dependent activation of Rap1 has previously been ascribed to the phosphorylation of Rap1A by PKA, which raises its affinity to smgGDS, a GEF with broad substrate specificity. […] The activation of Rap1A induced by cAMP-GEFI and II is independent of the PKA pathway.

The target of data set [1] is T3, cAMP-GEFI (Rattus norvegicus, UniProt Q9Z1C8).
T3 sequence (Q9Z1C8 43-926 limits assumed): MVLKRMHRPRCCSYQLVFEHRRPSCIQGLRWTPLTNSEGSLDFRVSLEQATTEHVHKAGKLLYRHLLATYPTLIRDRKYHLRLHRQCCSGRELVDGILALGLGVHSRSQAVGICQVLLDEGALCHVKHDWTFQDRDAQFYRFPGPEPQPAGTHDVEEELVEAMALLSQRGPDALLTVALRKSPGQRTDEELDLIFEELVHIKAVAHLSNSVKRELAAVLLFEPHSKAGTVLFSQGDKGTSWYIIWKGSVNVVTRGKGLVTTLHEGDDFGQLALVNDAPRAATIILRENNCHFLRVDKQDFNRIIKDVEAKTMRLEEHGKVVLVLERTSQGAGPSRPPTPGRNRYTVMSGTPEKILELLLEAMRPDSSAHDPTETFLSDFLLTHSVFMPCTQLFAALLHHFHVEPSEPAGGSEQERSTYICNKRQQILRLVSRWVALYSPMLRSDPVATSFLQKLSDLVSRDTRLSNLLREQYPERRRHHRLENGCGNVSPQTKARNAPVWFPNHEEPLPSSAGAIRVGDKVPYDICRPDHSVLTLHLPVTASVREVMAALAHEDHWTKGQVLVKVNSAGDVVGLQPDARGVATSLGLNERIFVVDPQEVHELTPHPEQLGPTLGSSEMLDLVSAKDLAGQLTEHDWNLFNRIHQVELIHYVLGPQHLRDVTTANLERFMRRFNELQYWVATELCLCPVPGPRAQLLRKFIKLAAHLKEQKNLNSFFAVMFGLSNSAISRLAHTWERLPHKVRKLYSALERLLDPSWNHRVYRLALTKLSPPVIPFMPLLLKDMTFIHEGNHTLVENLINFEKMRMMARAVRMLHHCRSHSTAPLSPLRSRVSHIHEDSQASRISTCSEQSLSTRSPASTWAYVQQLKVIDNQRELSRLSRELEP
As to the kind of experiment: Ratio of GTP to GDP bound to Rap1A in 293T cells expressing cAMP-GEFI. Set-up: expressed in transfected cells; host or cells: 293T cells. It counts as cell-based. On the procedure: (§3) To determine the effect of CalDAG-GEFI on the Erk/MAP kinase cascade, Elk1 activation was measured in 293T cells transfected with CalDAG-GEFI or constitutively active H-Ras (RasV12), or both. 293T cells were transfected by SuperFect (Qiagen) as described in Gotoh, supra, with expression vectors for GST-tagged Ras family proteins and with those for various GEFs. Cells were labeled 24 hours after transfection with ^32Pi for 2 hr. In some experiments, cells were stimulated with either 10 μM A23187 or 1 μM phorbol-12-myristate-13-acetate (TPA) for 3 min. GST-tagged Ras family proteins were collected from cell lysates with glutathione Sepharose. Guanine nucleotides bound to Ras family proteins were separated by thin layer chromatography (TLC). Activation of Elk1 was examined by the PathDetect Elk1 transreporting system (Stratagene). 293T cells were transfected with pFR-Luc and pFA-Elk1 with various expression vectors, and light output was detected and analyzed by the use of LAS1000 film.
as §2
Thus, cAMP-GEFI has a direct effect on Rap1A rather than secondary effects mediated by other Ras-superfamily GEFs.

In data set [2] the target is Rap1A as a fusion protein to glutathione S-transferase (pEBG-Krev1) (UniProt P62834).
The target in data set [3] is T3, cAMP-GEFI. Briefly: cAMP agarose affinity bead binding assay. To be noted: excess amounts of competitor; in vitro translated cAMP-GEFI.
For a further data set, the target named is T4, cAMP-GEFII (Homo sapiens, UniProt Q8WZA2).
T4 construct: expressed in transfected cells; host or cells: 293T cells
Briefly: Ratio of GTP to GDP bound to Rap1A in 293T cells expressing cAMP-GEFII. It is filed as cell-based. On the procedure: as §3, §2

T4 sequence (Q8WZA2 whole entry): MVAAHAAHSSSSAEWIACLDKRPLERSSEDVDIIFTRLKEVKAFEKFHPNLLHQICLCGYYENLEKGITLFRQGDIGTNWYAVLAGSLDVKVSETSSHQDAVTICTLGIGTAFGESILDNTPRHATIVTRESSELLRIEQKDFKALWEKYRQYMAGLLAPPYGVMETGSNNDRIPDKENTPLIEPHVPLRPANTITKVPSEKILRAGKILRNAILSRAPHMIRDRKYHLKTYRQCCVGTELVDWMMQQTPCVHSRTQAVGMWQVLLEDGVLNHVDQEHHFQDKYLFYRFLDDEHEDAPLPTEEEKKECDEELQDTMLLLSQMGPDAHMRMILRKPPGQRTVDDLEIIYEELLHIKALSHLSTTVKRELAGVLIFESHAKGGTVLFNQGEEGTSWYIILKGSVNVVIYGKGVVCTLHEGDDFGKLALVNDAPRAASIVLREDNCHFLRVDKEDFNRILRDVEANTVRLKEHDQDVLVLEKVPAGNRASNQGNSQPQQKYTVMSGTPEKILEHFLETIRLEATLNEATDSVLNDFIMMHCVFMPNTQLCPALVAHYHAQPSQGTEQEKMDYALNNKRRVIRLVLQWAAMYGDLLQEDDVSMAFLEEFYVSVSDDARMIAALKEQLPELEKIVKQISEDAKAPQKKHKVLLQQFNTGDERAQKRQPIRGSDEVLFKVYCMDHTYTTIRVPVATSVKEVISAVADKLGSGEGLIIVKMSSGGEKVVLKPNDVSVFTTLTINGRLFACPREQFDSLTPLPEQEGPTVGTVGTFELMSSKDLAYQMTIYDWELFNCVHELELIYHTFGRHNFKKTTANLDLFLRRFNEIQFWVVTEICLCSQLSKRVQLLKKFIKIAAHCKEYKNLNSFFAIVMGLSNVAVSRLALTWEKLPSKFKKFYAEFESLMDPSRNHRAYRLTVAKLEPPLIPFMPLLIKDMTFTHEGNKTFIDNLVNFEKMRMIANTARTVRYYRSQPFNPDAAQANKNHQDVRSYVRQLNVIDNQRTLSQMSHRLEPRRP
Sequence of Rap1A as a fusion protein to glutathione S-transferase (pEBG-Krev1) (P62834 whole entry, the tested form may be a part): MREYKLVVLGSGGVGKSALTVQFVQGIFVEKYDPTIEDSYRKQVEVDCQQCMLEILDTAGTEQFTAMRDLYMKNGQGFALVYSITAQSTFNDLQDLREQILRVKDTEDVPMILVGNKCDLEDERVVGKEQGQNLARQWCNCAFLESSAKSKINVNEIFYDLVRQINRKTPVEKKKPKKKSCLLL

For the compound `CNc1ccc2oc(C[C@H]3O[C@@]4(CC[C@H]3C)O[C@H]([C@H](C)C(=O)c3ccc[nH]3)[C@H](C)C[C@H]4C)nc2c1C(=O)O` [A23187], the “Effect on CalDAG-GEFI-induced increase in GTP-bound Rap1A” value at CalDAG-GEFI was “augmented”. For the same compound, the “Effect on CalDAG-GEFII H-Ras activation” value on CalDAG-GEFII was “enhanced”.

For the compound `Nc1ncnc2c1ncn2[C@@H]1O[C@@H]2COP(O)(=S)O[C@H]2[C@H]1O` (stereo partly shown) [Sp-cAMPS], the “Increase of GTP-bound Rap1A without cAMP-GEF” value in the data set on Rap1A is on record as “not detected”. The “Activation of Rap1A” value on cAMP-GEFI [1] (cAMP-GEFI transfectants) is given as “activated Rap1A at levels similar to those induced by forskolin/IBMX”.

On to cAMP-GEFI (wild type), for which the “time-course of the activation of Rap1A by forskolin/IBMX in cAMP-GEFI transfectants” value in data set [2] was “the activation began within 10 sec, reached a maximum at 5 min, and continued for at least 60 min”.

In the case of `CCCCCCCCCCCCCC(=O)O[C@@H]1[C@@H](C)[C@@]2(O)[C@@H](C=C(CO)C[C@]3(O)C(=O)C(C)=C[C@@H]23)[C@@H]2C(C)(C)[C@]12OC(C)=O` [TPA, phorbol-12-myristate-13-acetate], on CalDAG-GEFI, the “Effect on CalDAG-GEFI-induced increase in GTP-bound Rap1A” value was “augmented”. Also, the “Effect on CalDAG-GEFII H-Ras activation” value at CalDAG-GEFII is on record as “enhanced”.

Regarding `Nc1ncnc2c1nc(Br)n2[C@@H]1O[C@@H]2COP(=O)(O)O[C@H]2[C@H]1O` [8-Br-cAMP], at cAMP-GEFI [3], the “Competition of radiolabeled cAMP-GEFI binding to cAMP agarose beads” value was “competed”.

For `O=S(=O)(NCCNC/C=C/c1ccc(Br)cc1)c1cccc2cnccc12` [H-89], on cAMP-GEFII, the “Rap1A activation by cAMP-GEFII in the presence of the PKA inhibitor” value is “could still activate Rap1A”. For the same compound, the “Rap1A activation by cAMP-GEFI in the presence of the PKA inhibitor” value on cAMP-GEFI [1] (293T cells) is “could still activate Rap1A”.
